Experimental data published in the NIST ThermoML archive (doi:10.1016/j.fluid.2013.07.002).
Numbers after ± are expanded uncertainties.

Settings: Crystal; visual observation

CCCCCCCCCCCCCCCCCCO [1-octadecanol]
Normal melting temperature: 58 ± 0.39 °C
